Laboratory results taken from US20170247366A1, “SUBSTITUTED 4-ALKOXYPICOLINAMIDE ANALOGS AS MGLUR5 NEGATIVE ALLOSTERIC MODULATORS AND METHODS OF MAKING AND USING THE SAME” (VANDERBILT UNIVERSITY, priority 2014, published 2017).

Biological target: T1, rat mGluR5 (Rattus norvegicus, UniProt P31424)
T1 construct: expressed in transfected cells
Test: mGluR5 calcium flux assay in HEK 293A cells, negative allosteric modulation of glutamate EC80 response
Format: cell-based
Settings: HEK cells transfected with rat mGluR5; glutamate EC80; ± is standard error of at least three experiments
Description: HEK 293A cells stably expressing either rat or human mGluR5 were plated in black-walled, clear-bottomed, poly-D-lysine coated 384-well plates in 20 μL of assay medium (DMEM containing 10% dialyzed FBS, 20 mM HEPES, 100 units/mL penicillin/streptomycin plus 250 ng/mL Fungizone, and 1 mM sodium pyruvate) at a density of 20K cells/well. The cells were grown overnight at 37° C. in the presence of 5% CO2. The next day, medium was removed and the cells incubated with 20 μL of 2.3 µM Fluo-4, AM prepared as a 2.3 mM stock in DMSO and mixed in a 1:1 ratio with 10% (w/v) pluronic acid F-127 and diluted in assay buffer (Hank's balanced salt solution, 20 mM HEPES, and 2.5 mM probenecid) for 45 minutes at 37° C. Dye was removed, 20 μL of assay buffer was added, and the plate was incubated for 5 minutes at room temperature.
Ca^2+ flux was measured using the Functional Drug Screening System (FDSS7000, Hamamatsu, Japan). After establishment of a fluorescence baseline for about 3 seconds, the compounds of the present invention were added to the cells, and the response in cells was measured. 2.3 minutes later an EC20 concentration of the mGluR5 receptor agonist glutamate was added to the cells, and the response of the cells was measured for 1.9 minutes; an EC80 concentration of agonist was added and readings taken for an additional 1.7 minutes. All test compounds were dissolved and diluted to a concentration of 10 mM in 100% DMSO. Compounds were then serially diluted 1:3 in DMSO into 10 point concentration response curves, transferred to daughter plates, and further diluted into assay buffer to a 2× stock. Calcium fluorescence measures were recorded as fold over basal fluorescence; raw data was then normalized to the maximal response to glutamate. Antagonism of the agonist response of the mGluR5 receptor in the present invention was observed as a decrease in response to nearly maximal concentrations of glutamate in the presence of compound compared to the response to glutamate in the absence of compound.
The raw data file containing all time points was used as the data source in the analysis template. This was saved by the FDSS as a tab-delimited text file. Data were normalized using a static ratio function (F/F0) for each measurement of the total 360 values per well divided by each well's initial value. Data were then reduced to peak amplitudes (Max−Initial Min) using a time range that starts approximately 3 seconds prior to the glutamate EC20/EC80 addition and continues for approximately 90-120 seconds. This is sufficient time to capture the peak amplitude of the cellular calcium response. Individual amplitudes were expressed as % EMax by multiplying each amplitude by 100 and then dividing the product by the mean of the amplitudes derived from the glutamate ECMax-treated wells. IC50 values for test compounds were generated by fitting the normalized values versus the log of the test compound concentration (in mol/L) using a 4 parameter logistic equation where none of the parameters were fixed. Each of the three values collected at each concentration of test compound were weighted evenly.
For NAMs with a CRC that plateaus above 10% Glu Max, the IC50 values are reported, the compound is designated a “partial NAM” and the % Glu Max is reported. […] Compounds without measurable activity are designated as “>30,000 nM” since the top concentration of compound tested in the assay is 30 µM. Exemplary data are provided in Tables 1 and 2 below.
Table 1 below lists specific compounds, experimentally determined molecular mass, and mGluR5 activity determined in a cell-based assay. The mGluR5 activity was determined using the metabotropic glutamate receptor activity assays in human embryonic kidney cells as described herein, wherein the human embryonic kidney cells were transfected with rat mGluR5. The mGluR5 activity data for some compounds are shown as the average of at least three experiments with the standard error in these cases. […]

T1 sequence (P31424 21-1203): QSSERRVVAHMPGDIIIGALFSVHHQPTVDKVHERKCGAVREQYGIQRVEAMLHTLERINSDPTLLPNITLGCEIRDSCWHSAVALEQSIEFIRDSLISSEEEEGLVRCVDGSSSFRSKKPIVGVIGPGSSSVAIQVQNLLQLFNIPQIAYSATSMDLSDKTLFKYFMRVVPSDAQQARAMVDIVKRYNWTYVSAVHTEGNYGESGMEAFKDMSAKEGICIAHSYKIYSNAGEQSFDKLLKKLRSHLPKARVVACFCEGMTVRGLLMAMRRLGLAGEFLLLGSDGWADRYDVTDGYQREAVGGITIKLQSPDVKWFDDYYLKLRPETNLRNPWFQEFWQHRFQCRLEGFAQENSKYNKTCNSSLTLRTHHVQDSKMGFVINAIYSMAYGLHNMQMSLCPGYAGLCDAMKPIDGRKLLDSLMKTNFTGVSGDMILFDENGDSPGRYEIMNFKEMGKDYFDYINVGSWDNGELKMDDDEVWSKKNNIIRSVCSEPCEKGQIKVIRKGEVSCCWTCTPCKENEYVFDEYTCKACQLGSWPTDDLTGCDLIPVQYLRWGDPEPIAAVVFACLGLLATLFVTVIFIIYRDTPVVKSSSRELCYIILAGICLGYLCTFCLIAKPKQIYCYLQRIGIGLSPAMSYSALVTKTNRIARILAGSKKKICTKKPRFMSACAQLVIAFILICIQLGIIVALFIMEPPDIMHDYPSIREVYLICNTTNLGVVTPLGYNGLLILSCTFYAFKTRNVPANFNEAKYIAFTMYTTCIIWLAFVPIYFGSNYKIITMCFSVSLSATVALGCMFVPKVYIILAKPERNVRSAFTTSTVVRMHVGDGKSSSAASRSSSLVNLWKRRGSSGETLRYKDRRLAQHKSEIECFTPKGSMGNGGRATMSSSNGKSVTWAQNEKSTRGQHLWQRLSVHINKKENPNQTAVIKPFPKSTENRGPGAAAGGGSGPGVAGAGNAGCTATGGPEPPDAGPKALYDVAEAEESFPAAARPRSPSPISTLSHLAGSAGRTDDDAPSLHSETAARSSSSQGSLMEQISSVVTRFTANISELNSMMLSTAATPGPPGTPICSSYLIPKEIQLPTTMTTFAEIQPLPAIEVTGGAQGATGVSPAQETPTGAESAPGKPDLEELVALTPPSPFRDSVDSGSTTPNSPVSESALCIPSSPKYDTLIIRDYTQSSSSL

| IC50 [nM] | Structure (SMILES) |
| --- | --- |
| 153 | Cc1cc(O[C@@H]2CCOC2)cc(C(=O)Nc2nc(C3CC3)cs2)n1 |
| 1390 | COc1ccc(NC(=O)c2cc(OC3COC3)cc(C)n2)nc1 |
| 2100 | Cc1cc(OC2CCCCC2)cc(C(=O)Nc2nc(C)cs2)n1 |
| 140 | Cc1cc(OC2CCCOC2)cc(C(=O)Nc2nc(C)cs2)n1 (stereo not drawn) |
| 504 | Cc1cc(OC2CN(S(C)(=O)=O)C2)cc(C(=O)Nc2nc(C)cs2)n1 |
| 863 | Cc1cc(OC2(C)COC2)cc(C(=O)Nc2ccc(F)cn2)n1 |
| 2330 | Cc1cc(OCC2CCCO2)cc(C(=O)Nc2ccc(F)cn2)n1 (stereo not drawn) |
| 91 ± 3 | Cc1cc(O[C@H]2CCCOC2)cc(C(=O)Nc2nc(C)cs2)n1 |
| 1460 | Cc1cc(OCC2CCOCC2)cc(C(=O)Nc2ccccn2)n1 |
| 5200 | Cc1cc(O[C@H]2CO[C@H](C)C2)cc(C(=O)Nc2nc(C(F)(F)F)cs2)n1 |
| 37 | Cc1cc(OC2CSC2)cc(C(=O)Nc2ccc(F)cn2)n1 |
| 1050 | COc1cccc(NC(=O)c2cc(OC3COC3)cc(C)n2)n1 |
| 71 | Cc1cc(O[C@@H]2CCOC2)cc(C(=O)Nc2nc(CF)cs2)n1 |
| 610 | Cc1cc(OCC2CCOCC2)cc(C(=O)Nc2nc(C)cs2)n1 |
| 1680 | Cc1cc(OC2CC3(COC3)C2)cc(C(=O)Nc2ccccn2)n1 |
| 533 | Cc1cc(OC2C[S+]([O-])C2)cc(C(=O)Nc2ccc(F)cn2)n1 (stereo not drawn) |

| IC50 [nM] | Structure (SMILES) |
| --- | --- |
| 844 | COCCCOc1cc(C)nc(C(=O)Nc2ccccn2)c1 |
| 685 ± 51 | Cc1cc(O[C@H]2CCOC2)cc(C(=O)Nc2ccc(F)cn2)n1 |
| 2210 | CO[C@@H](C)COc1cc(C)nc(C(=O)Nc2ccccn2)c1 |
| 2480 | Cc1cc(OCC2CCO2)cc(C(=O)Nc2ccc(F)cn2)n1 (stereo not drawn) |
| 364 | CCOCCOc1cc(C)nc(C(=O)Nc2nc(C)cs2)c1 |
| > 30000 | Cc1cc(OC2CN(C(=O)OCC(C)C)C2)cc(C(=O)Nc2ccc(F)cn2)n1 |
| 1920 | Cc1cc(OCC2CCCCO2)cc(C(=O)Nc2nc(C)cs2)n1 (stereo not drawn) |
| 175 ± 21 | Cc1cc(O[C@H]2CO[C@H](C)C2)cc(C(=O)Nc2ccc(F)cn2)n1 |
| 954 | COCCOCCOc1cc(C)nc(C(=O)Nc2nc(C)cs2)c1 |
| 41 ± 3 | Cc1cc(O[C@@H]2CCOC2)cc(C(=O)Nc2ccc(F)cn2)n1 |
| 2130 | COC[C@@H](C)Oc1cc(C)nc(C(=O)Nc2ccccn2)c1 |
| 972 | Cc1cc(OC[C@H]2CCOC2)cc(C(=O)Nc2ccccn2)n1 |
| 210 | Cc1cc(OCC2CCOC2)cc(C(=O)Nc2ccccn2)n1 (stereo not drawn) |
| 7610 | COC[C@H](C)Oc1cc(C)nc(C(=O)Nc2ccc(F)cn2)c1 |
| > 10000 | Cc1cc(OC2CN(S(=O)(=O)CC(C)C)C2)cc(C(=O)Nc2nc(C)cs2)n1 |
| 247 | Cc1cc(O[C@@H]2CCOC2)cc(C(=O)Nc2nc(C(F)F)cs2)n1 |

The next lines start with the compound.

| Structure (SMILES) | IC50 [nM] |
| --- | --- |
| Cc1cc(OC2CCCC2)cc(C(=O)Nc2nc(C)cs2)n1 | 149 |
| CCCOC(=O)N1CC(Oc2cc(C)nc(C(=O)Nc3ccc(F)cn3)c2)C1 | > 10000 |
| Cc1cc(OCC2CCO2)cc(C(=O)Nc2nc(C)cs2)n1 (stereo not drawn) | 399 |
| Cc1cc(OCC2CCOCC2)cc(C(=O)Nc2ccc(F)cn2)n1 | 5720 |
| Cc1cc(OC2COC2)cc(C(=O)Nc2cccc(Cl)n2)n1 | 162 |
| Cc1cc(OC[C@@H]2CCOC2)cc(C(=O)Nc2ccc(F)cn2)n1 | 469 |
| Cc1cc(OC2COC2)cc(C(=O)Nc2ccccn2)n1 | 66 |
| Cc1cc(O[C@@H]2CCCOC2)cc(C(=O)Nc2nc(C)cs2)n1 | 70 ± 11 |
| CCOC(=O)N1CC(Oc2cc(C)nc(C(=O)Nc3ccc(F)cn3)c2)C1 | 3340 |
| Cc1cc(O[C@@H]2CCOC2)cc(C(=O)Nc2ccccn2)n1 | 23 |
| Cc1cc(OC2CN(C(=O)OC(C)C)C2)cc(C(=O)Nc2nc(C)cs2)n1 | 2510 |
| CO[C@@H](C)COc1cc(C)nc(C(=O)Nc2ccc(F)cn2)c1 | 4930 |
| Cc1cc(OCC2CCOC2)cc(C(=O)Nc2ccc(F)cn2)n1 (stereo not drawn) | 701 |
| CCOCCOc1cc(C)nc(C(=O)Nc2ccccn2)c1 | 842 |
| Cc1cccc(NC(=O)c2cc(OC3COC3)cc(C)n2)n1 | 59 |
| Cc1cc(OCC2COC2)cc(C(=O)Nc2ccccn2)n1 | 392 |
| Cc1cc(O[C@H]2CO[C@H](C)C2)cc(C(=O)Nc2nc(CF)cs2)n1 | 180 |
| Cc1cc(O[C@H]2CCCOC2)cc(C(=O)Nc2ccc(F)cn2)n1 | 264 ± 47 |
| Cc1cc(OC2CCOCC2)cc(C(=O)Nc2nc(C)cs2)n1 | 446 |
| Cc1cc(OC2CCSC2)cc(C(=O)Nc2ccccn2)n1 (stereo not drawn) | 39 |
| Cc1cc(OC2CN(S(C)(=O)=O)C2)cc(C(=O)Nc2ccc(F)cn2)n1 | 1310 |
| Cc1cc(OC2CN(C(=O)CC(C)C)C2)cc(C(=O)Nc2nc(C)cs2)n1 | 1670 |
| Cc1cc(OCC2COCCO2)cc(C(=O)Nc2ccc(F)cn2)n1 (stereo not drawn) | 7680 |
| Cc1cc(OCC2CCOC2)cc(C(=O)Nc2nc(C)cs2)n1 (stereo not drawn) | 200 |
| CCCS(=O)(=O)N1CC(Oc2cc(C)nc(C(=O)Nc3nc(C)cs3)c2)C1 | 789 |
| COC(=O)N1CC(Oc2cc(C)nc(C(=O)Nc3ccc(F)cn3)c2)C1 | 1570 |
| CO[C@H](C)COc1cc(C)nc(C(=O)Nc2ccccn2)c1 | 194 |
| Cc1cc(OC2CCC2)cc(C(=O)Nc2ccc(F)cn2)n1 | 182 |

| Structure (SMILES) | IC50 [nM] |
| --- | --- |
| Cc1cc(O[C@@H]2CCCOC2)cc(C(=O)Nc2ccc(F)cn2)n1 | 353 ± 83 |
| CCC(=O)N1CC(Oc2cc(C)nc(C(=O)Nc3ccc(F)cn3)c2)C1 | 3400 |
| Cc1cc(OC2COC2)cc(C(=O)Nc2nc(C)cs2)n1 | 70 ± 10 |
| CO[C@H](C)COc1cc(C)nc(C(=O)Nc2nc(C)cs2)c1 | 145 |
| Cc1cc(OC2CCCC2)cc(C(=O)Nc2ccc(F)cn2)n1 | 3660 |
| Cc1ccc(NC(=O)c2cc(OC3COC3)cc(C)n2)nc1 | 1480 |
| Cc1cc(OC2CCCCC2)cc(C(=O)Nc2ccccn2)n1 | 1420 |
| Cc1cc(OC2CCCC2)cc(C(=O)Nc2ccccn2)n1 | 182 |
| CCS(=O)(=O)N1CC(Oc2cc(C)nc(C(=O)Nc3nc(C)cs3)c2)C1 | 1270 |
| Cc1cc(O[C@@H]2CCOC2)cc(C(=O)Nc2nc(C)cs2)n1 | 42 ± 9 |
| Cc1cc(OCC2COC2)cc(C(=O)Nc2ccc(F)cn2)n1 | 4300 |
| Cc1cc(OC2CN(S(=O)(=O)CC(C)C)C2)cc(C(=O)Nc2ccc(F)cn2)n1 | > 30000 |
| CCCS(=O)(=O)N1CC(Oc2cc(C)nc(C(=O)Nc3ccc(F)cn3)c2)C1 | > 10000 |
| CO[C@H](C)COc1cc(C)nc(C(=O)Nc2ccc(F)cn2)c1 | 718 |
| Cc1cc(OCC2CCCCO2)cc(C(=O)Nc2ccccn2)n1 (stereo not drawn) | 2970 |
| Cc1cc(OC2CS(=O)(=O)C2)cc(C(=O)Nc2nc(C)cs2)n1 | 392 |
| COC[C@H](C)Oc1cc(C)nc(C(=O)Nc2nc(C)cs2)c1 | 932 |
| Cc1cc(OCC2CCCCO2)cc(C(=O)Nc2ccc(F)cn2)n1 (stereo not drawn) | ≥ 10000 |
| Cc1cc(OC2COC2)cc(C(=O)Nc2ccc(Cl)cn2)n1 | 1530 |
| Cc1cc(OCC2COCCO2)cc(C(=O)Nc2ccccn2)n1 (stereo not drawn) | 1780 |
| Cc1cc(OC2CS(=O)(=O)C2)cc(C(=O)Nc2ccc(F)cn2)n1 | 742 |
| Cc1cc(O[C@@H]2CCCOC2)cc(C(=O)Nc2ccccn2)n1 | 101 |
| CCOC(=O)N1CC(Oc2cc(C)nc(C(=O)Nc3nc(C)cs3)c2)C1 | 862 |
| Cc1cc(OC2CCSC2)cc(C(=O)Nc2nc(C)cs2)n1 (stereo not drawn) | 77 |
| Cc1cc(O[C@H]2CCOC2)cc(C(=O)Nc2ccccn2)n1 | 194 |
| Cc1cc(OCC2CCO2)cc(C(=O)Nc2ccccn2)n1 (stereo not drawn) | 646 |
| COCCCOc1cc(C)nc(C(=O)Nc2ccc(F)cn2)c1 | 2630 |

Same assay, conditions: rat mGluR5; average Glu Max at 30 μM; CRC does not hit a plateau

| % Glu Max at single concentration [%] | Structure (SMILES) |
| --- | --- |
| 37 | CCCOC(=O)N1CC(Oc2cc(C)nc(C(=O)Nc3ccc(F)cn3)c2)C1 |
| 53 | CCCS(=O)(=O)N1CC(Oc2cc(C)nc(C(=O)Nc3ccc(F)cn3)c2)C1 |
| 59 | Cc1cc(OC2CN(S(=O)(=O)CC(C)C)C2)cc(C(=O)Nc2nc(C)cs2)n1 |
